The results in this text go back to patent US20260191974A1, “B7-H3 TARGETING LIGANDS AND METHODS OF USE” (The University of North Carolina at Chapel Hill, priority 2022, published 2026).

Values joined by “and” are separate entries in the source; they are usually repeats but may differ in a detail not shown here. Equal values may be shown once. *1 amine or outer side, *2 acyl side, *3 side chain or, on linkers, in order; H or OH if unused. Where a SMILES comes first, the peptide text is derived from it. Bridges are numbered along the chain shown (N, C = ends). Where no end group is shown, it is not given here. [ ]: non-standard residue; d: D form. ξ: configuration not given here. mXylylene = c1cc(C[*:1])cc(C[*:2])c1; Nle = CCCC[C@H](N)C(=O)O; ξP = O=C(O)C1CCCN1

The target of series [1] is human and murine B7-H3. Kind of series: KD (nM). The method, then:
(§1) Table printed on a drawing sheet, FIG. 24C
Head of the field: KD (nM)
(§2) The patent's description of the figure: FIGS. 24A-24C. SPR analysis of the selected peptides B1.1 and JP5. The B1.1 variant was analyzed at analyte concentrations of 7.5, 15, 30, 60, and 120 nM (FIG. 24A) and the JP5 variant was analyzed at analyte concentrations of 22.2, 66.6, 200, 600 and 1800 nM (FIG. 24B). (FIG. 24C) Binding kinetics of each peptide.
(§3) First copying reader's note: Bracket lines drawn over and under the sequences mark ring closures that the text cells cannot show: C-C above and Q-K below in oxidized B1.1, Q-K below only in reduced B1.1, and C-C above in JP5.
(§4) Where the first naming reader finds the target: passage: Surface plasmon resonance was used to evaluate binding of B1.1 and JP5 to both human and murine B7-H3 (FIGS. 24A-24C)

In another series the target is T1, biotinylated B7-H3 (Homo sapiens, UniProt Q5ZPR3).
T1 sequence (Q5ZPR3 29-534): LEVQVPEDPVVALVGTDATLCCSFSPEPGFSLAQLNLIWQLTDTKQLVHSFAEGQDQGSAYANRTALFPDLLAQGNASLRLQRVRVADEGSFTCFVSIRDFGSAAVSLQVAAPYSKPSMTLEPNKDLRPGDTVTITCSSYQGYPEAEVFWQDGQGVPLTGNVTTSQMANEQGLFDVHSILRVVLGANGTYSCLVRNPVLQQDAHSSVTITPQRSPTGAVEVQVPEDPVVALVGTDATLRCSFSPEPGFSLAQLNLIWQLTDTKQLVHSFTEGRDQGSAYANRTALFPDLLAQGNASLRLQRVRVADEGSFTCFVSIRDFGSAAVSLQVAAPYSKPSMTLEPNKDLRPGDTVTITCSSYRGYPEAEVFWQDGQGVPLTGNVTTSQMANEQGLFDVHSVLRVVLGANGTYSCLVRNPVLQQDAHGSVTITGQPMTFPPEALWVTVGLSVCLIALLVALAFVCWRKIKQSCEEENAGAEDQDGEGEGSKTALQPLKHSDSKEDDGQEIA
Kind of series: Surface Plasmon Resonance (SPR) analysis against biotinylated B7-H3. Particulars: biotinylated B7-H3, 25° C., 1:1 binding kinetics model. An excerpt: (§5) FIGS. 4A-4G. (FIG. 4A) Selection schematic detailing the selection process for identifying binders against B7-H3. (FIG. 4B) qPCR results of the mTG mediated B7-H3 selection. (FIG. 4C) B7-H3 selection results and complete NGS analysis of B7-H3 hits. (FIG. 4D) NGS data of the selection hits. […] Arrow indicates the peptide pursued for binding validation. (FIG. 4E) EIC ([M+2], 948.91 m/z) traces corresponding to the product of the mTG reaction with linear B1.1 peptide and the synthetic lactam, disulfide peptide. (FIG. 4F) Surface Plasmon Resonance (SPR) analysis of the selected peptide (B1.1), the Met9Nle variant, and the linear variant. […] The selected B1.1 and the Met9Nle variant were analyzed at analyte concentrations of 7.5, 15, 30, 60, 120 nM. The linear variant was analyzed at analyte concentrations of 50, 100, 200, 400, 800 nM. […] (FIG. 4G) Individual SPR curves. Fitted curve and raw data are shown.
Surface Plasmon Resonance (SPR) analysis. Binding kinetics between our selected peptide (and variants) and biotinylated B7-H3 (B7-H3b) were assessed through SPR analysis using a BIACORE 8K SPR system (GE Healthcare). The running buffer was 1×PBS pH7.5, 0.05% TWEEN® 20 and all analysis was carried out at 25° C. B7-H3b was loaded onto a NeutrAvidin SPR Chip (Series S Sensor Chip NA, 29407997, Cytiva) at a flow rate of […] to a surface density of 1000-1500 response units. Analyte was then injected over a series of five concentrations and quantified by BIACORE single-cycle kinetics method. For our selected peptide (B1.1) and the Met9Nle variant a range of 7.5, 15, 30, 60, 120 nM were run. For the linear variant concentrations of 50, 100, 200, 400, 800 nM were run. Binding sonograms were generated using a standard 1:1 binding kinetics model and kinetics constants determined using standard BIACORE evaluation software.

For series [2], the system named is B7-H3. Kind of series: ka (M^-1s^-1).
Text: (§6) Table printed on a drawing sheet, FIG. 4F
Head of the field: ka (M^-1s^-1)
as §5, with “The patent's description of the figure: FIGS.” for “FIGS.”
(§7) First copying reader's note: Brackets drawn on the SELECTED and MET9NLE sequences join C to C (above) and Q to K (below), marking a bicyclic peptide; LINEAR has no brackets.
(§8) Where the first naming reader finds the target: passage: Binding affinities were assessed for each peptide by surface plasmon resonance (SPR) against biotinylated B7-H3.

Series [3] concerns B7-H3. Kind of series: kd (s^-1).
Text: as §6
Head of the field: kd (s^-1)
as §5, with “The patent's description of the figure: FIGS.” for “FIGS.”
as §7, §8

For series [4], the system named is human and murine B7-H3. Kind of series: Ka (M^-1s^-1). How it is done: as §1
Head of the field: Ka (M^-1s^-1)
as §2, §3, §4

Series [5] can be described thus: Serum stability in 50% fetal bovine serum. It counts as in vitro ADME. As to conditions: 37° C., read-out: peptide remaining intact. The method, then:
Serum stability of JP3 and JP5 was assessed. Peptides (JP3 or JP5) were incubated in 50% fetal bovine serum (diluted in media) at 37° C. and samples were taken over a time course spanning 24 h. Samples were mixed with cold methanol to crash out serum protein, and the supernatant containing the peptides was collected and run on MS to determine the amount of peptide present at each time point.

Series [6] has as its target T2, B7-H3 (Homo sapiens, UniProt Q5ZPR3).
T2 sequence (Q5ZPR3 29-534): T1 sequence (Q5ZPR3 29-534)
Kind of series: mRNA display validation assay of NGS hits against B7-H3. It counts as binding. As to conditions: naïve NNK10 library as a control. An excerpt: FIGS. 11A-11F. Dibromoxylene (DBX) mediated B7-H3 selection. (FIG. 11A) Selection schematic details the selection process for identifying binders against B7-H3 using DBX. (FIG. 11B) qPCR results of the DBX mediated B7-H3 selection. (FIG. 11C) Mean frequency vs. number of sequences. (FIG. 11D) NGS data of the selection hits from Selections (rounds 3 and 5), named sequences indicate sequences purchased for binding validation. (FIG. 11E) Validation assay identified hits from NGS data run through the selection process (outlined in (FIG. 11A)), with the naïve NNK10 library as a control.
A background screen against selection components is carried out prior to the selection against B7-H3 to remove non-specific binders. FIG. 11D includes sequences from NGS data with named sequences evaluated for binding validation. […] Exemplary DBX hit structures are shown in FIG. 12, with points of cargo attachment designated with arrows.

In series [7] the test system is Raji cells expressing murine B7-H3. Kind of series: Live imaging with GFP-tagged endosome/lysosome reporters in Raji cells expressing murine B7-H3. Format: cell-based. Particulars: JP3-PEG-TAMRA or JP5-PEG-TAMRA at 250 nM for 5 hours. How it is done: FIGS. 22A-22B. Live imaging of an example targeting ligand uptake in Raji cells expressing murine B7-H3 pre-incubated with GFP-tagged reporters for early (Rab5a) and late (Rab7a) endosomes or early (Lamp1) lysosomes. Cells were treated with JP3-PEG-TAMRA (FIG. 22A) or JP5-PEG-TAMRA (FIG. 22B) at 250 nM for 5 hours, cytospun with live cell imaging subsequently performed.
Live imaging of an example targeting ligand uptake in Raji cells expressing murine B7-H3 pre-incubated with GFP-tagged reporters for early (Rab5a) and late (Rab7a) endosomes or early (Lamp1) lysosomes is shown in FIG. 22A (JP3) and FIG. 22B (JP5).

“acWALQLCHSNleFYTCKSGK(AZO)G [OXIDIZED B1.1 | 296]” had a Kd at human and murine B7-H3 [1] of 161 nM.

In the case of `CCCC[C@@H]1NC(=O)[C@H](CO)NC(=O)[C@H](Cc2c[nH]cn2)NC(=O)[C@@H]2CSSC[C@H](NC(=O)[C@H]([C@@H](C)O)NC(=O)[C@H](Cc3ccc(O)cc3)NC(=O)[C@H](Cc3ccccc3)NC1=O)C(=O)N[C@H](C(=O)N[C@@H](CO)C(=O)NCC(N)=O)CCCCNC(=O)CC[C@H](NC(=O)[C@H](CC(C)C)NC(=O)[C@H](C)NC(=O)[C@H](Cc1c[nH]c3ccccc13)NC(C)=O)C(=O)N[C@@H](CC(C)C)C(=O)N2` [Met9Nle variant, acWALQLCHSNleFYTCKSG] (Ac-WALELCHS[Nle]FYTCKSG-NH2; lactam 4-14; disulfide 6-13), the “binding affinity towards B7-H3” value at biotinylated B7-H3 is listed as “similar”. At biotinylated B7-H3 (read-out: binding affinity towards B7-H3), the Kd was 46.9 nM. In the series on B7-H3 [2], the “ka (M^-1s^-1)” value is recorded as 9.55e^5. In addition, the “kd (s^-1)” value with B7-H3 [3] worked out at 4.48e^-2.

On to “acWALQLCHSNleFYTCKSGK(AZO)G [REDUCED B1.1 | 294]”, for which, in the series on human and murine B7-H3 [4], the “Ka (M^-1s^-1)” value was determined as 7.444e^7.

Broadly, the amount remaining is the share of the starting amount still present when the sample was taken. With `CC[C@H](C)[C@@H]1NC(=O)[C@@H](NC(C)=O)CSCc2cccc(c2)CSC[C@@H](C(=O)NCC(=O)O)NC(=O)[C@@H]2CCCN2C(=O)[C@H](CC(C)C)NC(=O)[C@H](Cc2ccccc2)NC(=O)[C@H](CCCNC(=N)N)NC(=O)C2CCCN2C(=O)[C@H]([C@@H](C)CC)NC(=O)[C@H](CCCNC(=N)N)NC(=O)[C@H]([C@@H](C)O)NC(=O)[C@H](Cc2c[nH]c3ccccc23)NC(=O)[C@H](C(C)C)NC1=O` (stereo partly drawn) [JP3, N-terminal acetylated CIVWTRIPRFLPCG] (Ac-CIVWTRI[ξP]RFLPCG-OH; linker 1-13 via mXylylene), the share remaining at 24 h in series [5] was approximately 40%. In addition, the “binding in validation assay” value on B7-H3 [6] is reported as “strong B7-H3 binders”. In addition, the “subcellular localization (Rab5a, Rab7a, Lamp1 reporters)” value in series [7] is “Co-localization of JP3 and Rab5a”.

“linear variant of B1.1: linear form of B1.1 without lactam and disulfide cyclization (WALQLCHSMFYTCKSG-NH2; cysteine pairing not given here)”: the “binding affinity towards B7-H3” value is listed as “no detectable binding interaction” with biotinylated B7-H3 and “did not bind” with biotinylated B7-H3 (listed as linear precursor peptide).

As for `CC[C@H](C)[C@@H]1NC(=O)[C@H](CC(=O)O)NC(=O)[C@H](CCCNC(=N)N)NC(=O)[C@H]([C@@H](C)CC)NC(=O)[C@H]([C@@H](C)O)NC(=O)[C@H](Cc2c[nH]c3ccccc23)NC(=O)[C@@H](NC(C)=O)CSCc2cccc(c2)CSC[C@@H](C(=O)NCC(=O)O)NC(=O)[C@H](CCCNC(=N)N)NC(=O)[C@H]([C@@H](C)O)NC(=O)CNC(=O)[C@H](CC(N)=O)NC1=O` [JP5, N-terminal acetylated CWTIRDINGTRCG] (Ac-CWTIRDINGTRCG-OH; linker 1-12 via mXylylene; N-terminus and C-terminus assumed), in series [5], the amount remaining at 24 h was 80%. At B7-H3 [6], the “binding in validation assay” value was “strong B7-H3 binders”. For the same compound, the “subcellular localization (Rab5a, Rab7a, Lamp1 reporters)” value in series [7] was “predominantly cell surface localization of JP5 was observed with some rare evidence of endosomal uptake”. In the series with human and murine B7-H3 [4], the “Ka (M^-1s^-1)” value is 1.25e^5 and 1.02e^5.
